Measurements as given in patent US10392348B2, “2-oxo-3,4-dihydroquinoline compounds as plant growth regulators” (Syngenta Participations AG, priority 2015, dated 2019).
Read-outs that look alike come from different tables or passages of the source.

Experiments:
[1] = tested on: soybean plants (variety S20-G7); assay: Reduced plant water use in soybean (foliar spray, repeated weighing of pots); format: in vivo; details: vs negative control; for change in vivo at 500 µM / change in vivo at 31.25 µM / change in vivo at 125 µM: Glycine max, foliar; for % WU 0 DAA AM*: 0 DAA a.m.
Method in brief: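 Daytime water use was tracked by weighing pots of 12-day-old soybean after foliar spray of compound formulated as EC plus EXTRAVON 1 g/20 L. Cumulative total (0-2.5 DAA) sums a.m. and p.m. readings; values baseline-adjusted by covariance analysis against formulation-only negative control.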

[2] = 0 h, Table B1, sprayed at 500 μM, 0 DAA a.m. (10:30-12:50), read-out: % WU 0 DAA AM
[3] = 24 h, Table B1, sprayed at 500 μM, 1 DAA a.m. (7:30-12:50), read-out: % WU 1DAA AM
[4] = 24 h, Table B1, sprayed at 500 μM, 1 DAA p.m. (14:00-19:50), read-out: % WU 1DAA PM
[5] = 24 h, Table B2, rate 31.25 uM, 1 DAA a.m., read-out: % WU 1DAA AM
[6] = 24 h, Table B2, rate 31.25 uM, 1 DAA p.m., read-out: % WU 1DAA PM
[7] = 24 h, Table B2, rate 125 uM, 1 DAA a.m., read-out: % WU 1DAA AM
[8] = 24 h, Table B2, rate 125 uM, 1 DAA p.m., read-out: % WU 1DAA PM
[9] = 24 h, Table B2, rate 500 uM, 1 DAA a.m., read-out: % WU 1DAA AM
[10] = 24 h, Table B2, rate 500 uM, 1 DAA p.m., read-out: % WU 1DAA PM
[11] = 48 h, Table B1, sprayed at 500 μM, 2 DAA a.m. (07:30-12:50), read-out: % WU 2 DAA AM
[12] = 48 h, Table B1, sprayed at 500 μM, 2 DAA p.m. (14:00-19:50), read-out: % WU 2 DAA PM
[13] = 48 h, Table B2, rate 31.25 uM, 2 DAA a.m., read-out: % WU 2 DAA AM
[14] = 48 h, Table B2, rate 31.25 uM, 2 DAA p.m., read-out: % WU 2 DAA PM
[15] = 48 h, Table B2, rate 125 uM, 2 DAA a.m., read-out: % WU 2 DAA AM
[16] = 48 h, Table B2, rate 125 uM, 2 DAA p.m., read-out: % WU 2 DAA PM
[17] = 48 h, Table B2, rate 500 uM, 2 DAA a.m., read-out: % WU 2 DAA AM
[18] = 48 h, Table B2, rate 500 uM, 2 DAA p.m., read-out: % WU 2 DAA PM
[19] = 60 h, Table B1, sprayed at 500 μM, cumulative total WU (0-2.5 DAA), read-out: % WU Total 0 to 2.5 DAA
[20] = 60 h, Table B2, rate 31.25 uM, cumulative total WU (0-2.5 DAA), read-out: % WU Total 0 to 2.5 DAA
[21] = 60 h, Table B2, rate 125 uM, cumulative total WU (0-2.5 DAA), read-out: % WU Total 0 to 2.5 DAA
[22] = 60 h, Table B2, rate 500 uM, cumulative total WU (0-2.5 DAA), read-out: % WU Total 0 to 2.5 DAA

Work on `CCN1C(=O)CCc2cc(CNS(=O)(=O)c3ccccc3)ccc21` [Compound 2.001, N-[(1-ethyl-2-oxo-3,4-dihydroquinolin-6-yl)methyl]benzenesulfonamide] yielded a change in vivo at 500 µM [1, 2] of -35.3%, a change in vivo at 500 µM [1, 3] of -29.1% and a change in vivo at 500 µM [1, 4] of -28.1%. For the same molecule, the change in vivo at 31.25 µM [1, 5] was -1.8%, the change in vivo at 31.25 µM [1, 6] was -0.9% and the change in vivo at 125 µM [1, 7] was -10.1%. The change in vivo at 125 µM [1, 8] was -10.9%, the change in vivo at 500 µM [1, 9] was -36.3% and the change in vivo at 500 µM [1, 10] was -33.2%. For the same molecule, the change in vivo at 500 µM [1, 11] was -19.6%, the change in vivo at 500 µM [1, 12] was -14.3% and the change in vivo at 31.25 µM [1, 13] was -2.7%. The change in vivo at 31.25 µM [1, 14] was -1.5%, the change in vivo at 125 µM [1, 15] was -11.7% and the change in vivo at 125 µM [1, 16] was -10.1%. For the same molecule, the change in vivo at 500 µM [1, 17] was -24.2%, the change in vivo at 500 µM [1, 18] was -19.5% and the change in vivo at 500 µM [1, 19] was -25.7%. For the same molecule, the change in vivo at 31.25 µM [1, 20] was -1.7%, the change in vivo at 125 µM [1, 21] was -11.1% and the change in vivo at 500 µM [1, 22] was -31.8%. The “% WU 0 DAA AM*” value ([1]; Table B2, rate 31.25 uM) was −0.7%, the “% WU 0 DAA AM*” value ([1]; Table B2, rate 125 uM) was −10.4% and the “% WU 0 DAA AM*” value ([1]; Table B2, rate 500 uM) was −41.2%. It also gave a melting point of 114 to 124 °C.
For `CCN1C(=O)CCc2cc(CNS(=O)(=O)c3ccccc3F)ccc21` [Compound 2.007, N-[(1-ethyl-2-oxo-3,4-dihydroquinolin-6-yl)methyl]-2-fluoro-benzenesulfonamide], the change in vivo at 500 µM [1, 2] was -14.1%, the change in vivo at 500 µM [1, 3] was -7.3% and the change in vivo at 500 µM [1, 4] was -6.6%. For the same molecule, the change in vivo at 500 µM [1, 11] was -8.8%, the change in vivo at 500 µM [1, 12] was -5.7% and the change in vivo at 500 µM [1, 19] was -8.1%. The melting point was 155 to 163 °C.
`CCN1C(=O)CCc2cc(CNS(=O)(=O)c3ccc(F)cc3)ccc21` [Compound 2.009, N-[(1-ethyl-2-oxo-3,4-dihydroquinolin-6-yl)methyl]-4-fluoro-benzenesulfonamide] showed a change in vivo at 500 µM [1, 2] of -5.3%, a change in vivo at 500 µM [1, 3] of -2% and a change in vivo at 500 µM [1, 4] of -1.2%. The change in vivo at 500 µM [1, 11] was -3.1%, the change in vivo at 500 µM [1, 12] was -1% and the change in vivo at 500 µM [1, 19] was -2.3%. It also gave a melting point of 190 to 191 °C.
Work on `CCN1C(=O)CCc2cc(CNS(=O)(=O)c3ccc(OC)cc3)ccc21` [Compound 2.010, N-[(1-ethyl-2-oxo-3,4-dihydroquinolin-6-yl)methyl]-4-methoxy-benzenesulfonamide] yielded a change in vivo at 500 µM [1, 2] of -15.2%, a change in vivo at 500 µM [1, 3] of -2.6% and a change in vivo at 500 µM [1, 4] of -1.7%. It also gave a change in vivo at 500 µM [1, 11] of -3.6%, a change in vivo at 500 µM [1, 12] of -2.4% and a change in vivo at 500 µM [1, 19] of -4.3%. For the same molecule, the melting point was 147 to 150 °C.
With `CCN1C(=O)CCc2cc(CNS(=O)(=O)c3ccc(C)cc3C)ccc21` [Compound 2.014, N-[(1-ethyl-2-oxo-3,4-dihydroquinolin-6-yl)methyl]-2,4-dimethyl-benzenesulfonamide] the change in vivo at 500 µM [1, 2] was -2.8%, the change in vivo at 500 µM [1, 3] was -0.2% and the change in vivo at 500 µM [1, 4] was -0.9%. It also gave a change in vivo at 500 µM [1, 11] of -0.9%, a change in vivo at 500 µM [1, 12] of -1.7% and a change in vivo at 500 µM [1, 19] of -1.1%. It also gave a melting point of 199 to 200 °C.
`CCCN1C(=O)CCc2cc(CNS(=O)(=O)c3ccccc3)ccc21` [Compound 3.001, N-[(2-oxo-1-propyl-3,4-dihydroquinolin-6-yl)methyl]benzenesulfonamide] gave a change in vivo at 500 µM [1, 2] of -15%, a change in vivo at 500 µM [1, 3] of -9.9% and a change in vivo at 500 µM [1, 4] of -6.7%. It also gave a change in vivo at 31.25 µM [1, 5] of -6.9%, a change in vivo at 31.25 µM [1, 6] of -5.4% and a change in vivo at 125 µM [1, 7] of -15.7%. It also gave a change in vivo at 125 µM [1, 8] of -15.3%, a change in vivo at 500 µM [1, 9] of -36.4% and a change in vivo at 500 µM [1, 10] of -33.3%. It also gave a change in vivo at 500 µM [1, 11] of -7.2%, a change in vivo at 500 µM [1, 12] of -5.8% and a change in vivo at 31.25 µM [1, 13] of -5.8%. For the same molecule, the change in vivo at 31.25 µM [1, 14] was -2.2%, the change in vivo at 125 µM [1, 15] was -9.3% and the change in vivo at 125 µM [1, 16] was -6.3%. For the same molecule, the change in vivo at 500 µM [1, 17] was -21.4%, the change in vivo at 500 µM [1, 18] was -15.1% and the change in vivo at 500 µM [1, 19] was -8.8%. The change in vivo at 31.25 µM [1, 20] was -5.7%, the change in vivo at 125 µM [1, 21] was -14.8% and the change in vivo at 500 µM [1, 22] was -31.1%. The “% WU 0 DAA AM*” value ([1]; Table B2, rate 31.25 uM) was −4.4%, the “% WU 0 DAA AM*” value ([1]; Table B2, rate 125 uM) was −23.7% and the “% WU 0 DAA AM*” value ([1]; Table B2, rate 500 uM) was −44.6%. The melting point was 159 to 161 °C.
